Assay results as given in the NIST ThermoML archive (doi:10.1016/j.tca.2010.09.004).

Test: xn = mol fraction of the nth substance listed
Details: 101 kPa, Liquid; for speed of sound: Sing-around technique in a fixed-path interferometer; for mass density: Vibrating tube method

CCCNCCC [dipropylamine] + CCC(C)=O
Details | mass density [kg/m3] | speed of sound [m/s]
293.15 K, x2 = 0.0539 | 740.359 | 1208
293.15 K, x2 = 0.1021 | 742.443 | 1207.3
293.15 K, x2 = 0.1497 | 744.612 | 1206.7
293.15 K, x2 = 0.1982 | 746.936 | 1206.2
293.15 K, x2 = 0.2459 | 749.311 | 1205.7
293.15 K, x2 = 0.2983 | 752.034 | 1205.2
293.15 K, x2 = 0.3504 | 754.874 | 1204.9
293.15 K, x2 = 0.4012 | 757.757 | 1204.6
293.15 K, x2 = 0.4495 | 760.619 | 1204.3
293.15 K, x2 = 0.5068 | 764.2 | 1204.3
293.15 K, x2 = 0.5551 | 767.388 | 1204.4
293.15 K, x2 = 0.6014 | 770.563 | 1204.5
293.15 K, x2 = 0.6568 | 774.567 | 1204.8
293.15 K, x2 = 0.6968 | 777.603 | 1205.1
293.15 K, x2 = 0.7555 | 782.275 | 1205.9
293.15 K, x2 = 0.8009 | 786.111 | 1206.6
293.15 K, x2 = 0.8573 | 791.158 | 1207.8
293.15 K, x2 = 0.901 | 795.276 | 1208.9
293.15 K, x2 = 0.9479 | 799.908 | 1210.3
298.15 K, x2 = 0.0592 | 736.042 | 1186.6
298.15 K, x2 = 0.1027 | 737.924 | 1185.9
298.15 K, x2 = 0.1509 | 740.108 | 1185.2
298.15 K, x2 = 0.2001 | 742.441 | 1184.7
298.15 K, x2 = 0.2446 | 744.623 | 1184.2
298.15 K, x2 = 0.2958 | 747.263 | 1183.8
298.15 K, x2 = 0.3545 | 750.41 | 1183.3
298.15 K, x2 = 0.4003 | 753 | 1183.2
298.15 K, x2 = 0.4625 | 756.591 | 1182.5
298.15 K, x2 = 0.5006 | 759.04 | 1182.9
298.15 K, x2 = 0.5539 | 762.376 | 1182.7
298.15 K, x2 = 0.5992 | 765.587 | 1183.2
298.15 K, x2 = 0.6474 | 769.011 | 1183.4
298.15 K, x2 = 0.6987 | 772.61 | 1183.5
298.15 K, x2 = 0.7531 | 777.151 | 1184.6
298.15 K, x2 = 0.8048 | 781.469 | 1185.4
298.15 K, x2 = 0.8557 | 785.991 | 1186.6
298.15 K, x2 = 0.9041 | 790.463 | 1188
298.15 K, x2 = 0.9471 | 794.714 | 1189.1
303.15 K, x2 = 0.0658 | 731.678 | 1165.9
303.15 K, x2 = 0.0988 | 733.107 | 1165.4
303.15 K, x2 = 0.1106 | 733.626 | 1165.2
303.15 K, x2 = 0.2146 | 738.432 | 1164.1
303.15 K, x2 = 0.2595 | 740.626 | 1163.5
303.15 K, x2 = 0.3098 | 743.197 | 1163.1
303.15 K, x2 = 0.363 | 746.053 | 1162.8
303.15 K, x2 = 0.4131 | 748.859 | 1162.5
303.15 K, x2 = 0.457 | 751.472 | 1162.4
303.15 K, x2 = 0.5154 | 755.069 | 1162.3
303.15 K, x2 = 0.5554 | 757.601 | 1162.4
303.15 K, x2 = 0.6081 | 761.161 | 1162.6
303.15 K, x2 = 0.6657 | 765.248 | 1163
303.15 K, x2 = 0.7041 | 768.129 | 1163.5
303.15 K, x2 = 0.7517 | 771.855 | 1164
303.15 K, x2 = 0.8032 | 776.094 | 1164.8
303.15 K, x2 = 0.8513 | 780.312 | 1166.1
303.15 K, x2 = 0.8958 | 784.355 | 1167
303.15 K, x2 = 0.9448 | 789.085 | 1168.6
